Reference: the supplement of paper PMC11061612

Experiments:
[1] = test system: Becker (Low Grade Glioma); assay: Bliss excess, mean over the matrix (fraction); higher = more synergy
Procedure, shortened: (§1)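 Cell lines grown in DMEM/F12 or RPMI with 10% FBS were plated in 1536-well plates and held 24 hours at 37°C, 5% CO2 before 72 hours of exposure to two-drug dose matrices, with DMSO typically at 0.2%. CellTiter-Glo 2.0 luminescence gave viability, which was converted to inhibition. Vehicle wells were set to 0 and blank wells to 1. Combination Emax is the second-highest inhibition in the matrix, and Bliss excess is the observed combination effect minus the expected EA + EB − EA·EB, where EA and EB are the single-agent effects.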

CHL-1 (Melanoma) [2] = assay: as above
Procedure, shortened: as §1

[3] = test system: CML-T1 (Chronic Myelogenous Leukemia); assay: as above
Procedure, shortened: as §1

[4] = test system: COLO-684 (Endometrial Carcinoma); assay: as above
Procedure, shortened: as §1

[5] = test system: EB-3 (Burkitt's Lymphoma); assay: as above
Procedure, shortened: as §1

[6] = test system: FLO-1 (Esophageal Adenocarcinoma); assay: as above
Procedure, shortened: as §1

[7] = test system: HCC-44 (Lung Adenocarcinoma); assay: as above
Procedure, shortened: as §1

KYM-1 (Rhabdomyosarcoma) [8] = assay: as above
Procedure, shortened: as §1

[9] = test system: KYSE-70 (Esophageal Squamous Cell Carcinoma); assay: as above
Procedure, shortened: as §1

[10] = test system: LAMA-84 (Chronic Myelogenous Leukemia); assay: as above
Procedure, shortened: as §1

[11] = test system: LOUCY (T-Lymphoblastic Leukemia); assay: as above
Procedure, shortened: as §1

[12] = test system: NCI-H1755 (Lung Adenocarcinoma); assay: as above
Procedure, shortened: as §1

[13] = test system: NCI-H810 (Non-Small Cell Lung Carcinoma); assay: as above
Procedure, shortened: as §1

[14] = test system: NKM-1 (Acute Myeloid Leukemia); assay: as above
Procedure, shortened: as §1

[15] = test system: OV-90 (Ovarian Carcinoma); assay: as above
Procedure, shortened: as §1

[16] = test system: PANC-02-03 (Pancreatic Carcinoma); assay: as above
Procedure, shortened: as §1

[17] = test system: PC-14 (Lung Adenocarcinoma); assay: as above
Procedure, shortened: as §1

[18] = test system: RMG-I (Ovarian Carcinoma); assay: as above
Procedure, shortened: as §1

[19] = test system: SK-MM-2 (Plasma Cell Myeloma); assay: as above
Procedure, shortened: as §1

[20] = test system: SW684 (Other Solid Carcinomas); assay: as above
Procedure, shortened: as §1

[21] = test system: Becker (Low Grade Glioma); assay: combination Emax (second highest fraction inhibited in the dose matrix, 72 h); higher = more inhibition; extreme values may be limits of the assay
Procedure, shortened: as §1

CHL-1 (Melanoma) [22] = assay: as above
Procedure, shortened: as §1

[23] = test system: CML-T1 (Chronic Myelogenous Leukemia); assay: as above
Procedure, shortened: as §1

[24] = test system: COLO-684 (Endometrial Carcinoma); assay: as above
Procedure, shortened: as §1

[25] = test system: EB-3 (Burkitt's Lymphoma); assay: as above
Procedure, shortened: as §1

[26] = test system: FLO-1 (Esophageal Adenocarcinoma); assay: as above
Procedure, shortened: as §1

[27] = test system: HCC-44 (Lung Adenocarcinoma); assay: as above
Procedure, shortened: as §1

KYM-1 (Rhabdomyosarcoma) [28] = assay: as above
Procedure, shortened: as §1

[29] = test system: KYSE-70 (Esophageal Squamous Cell Carcinoma); assay: as above
Procedure, shortened: as §1

[30] = test system: LAMA-84 (Chronic Myelogenous Leukemia); assay: as above
Procedure, shortened: as §1

[31] = test system: LOUCY (T-Lymphoblastic Leukemia); assay: as above
Procedure, shortened: as §1

[32] = test system: NCI-H1755 (Lung Adenocarcinoma); assay: as above
Procedure, shortened: as §1

[33] = test system: NCI-H810 (Non-Small Cell Lung Carcinoma); assay: as above
Procedure, shortened: as §1

[34] = test system: NKM-1 (Acute Myeloid Leukemia); assay: as above
Procedure, shortened: as §1

[35] = test system: OV-90 (Ovarian Carcinoma); assay: as above
Procedure, shortened: as §1

[36] = test system: PANC-02-03 (Pancreatic Carcinoma); assay: as above
Procedure, shortened: as §1

[37] = test system: PC-14 (Lung Adenocarcinoma); assay: as above
Procedure, shortened: as §1

[38] = test system: RMG-I (Ovarian Carcinoma); assay: as above
Procedure, shortened: as §1

[39] = test system: SK-MM-2 (Plasma Cell Myeloma); assay: as above
Procedure, shortened: as §1

[40] = test system: SW684 (Other Solid Carcinomas); assay: as above
Procedure, shortened: as §1
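For Bliss excess, mean over the matrix in this document: after 72 h of two-drug dosing.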

Row | Compound | Bliss excess [1] | Bliss excess (CHL-1 (Melanoma) [2]) | Bliss excess [3] | Bliss excess [4] | Bliss excess [5] | Bliss excess [6] | Bliss excess [7] | Bliss excess (KYM-1 (Rhabdomyosarcoma) [8]) | Bliss excess [9] | Bliss excess [10] | Bliss excess [11] | Bliss excess [12] | Bliss excess [13] | Bliss excess [14] | Bliss excess [15] | Bliss excess [16] | Bliss excess [17] | Bliss excess [18] | Bliss excess [19] | Bliss excess [20] | combination Emax [21] | combination Emax (CHL-1 (Melanoma) [22]) | combination Emax [23] | combination Emax [24] | combination Emax [25] | combination Emax [26] | combination Emax [27] | combination Emax (KYM-1 (Rhabdomyosarcoma) [28]) | combination Emax [29] | combination Emax [30] | combination Emax [31] | combination Emax [32] | combination Emax [33] | combination Emax [34] | combination Emax [35] | combination Emax [36] | combination Emax [37] | combination Emax [38] | combination Emax [39] | combination Emax [40]
1 | O=C(c1cc(Cc2n[nH]c(=O)c3ccccc23)ccc1F)N1CCN(C(=O)C2CC2)CC1 [Olaparib] + CC1(C)CCC(CN2CCN(c3ccc(C(=O)NS(=O)(=O)c4ccc(NCC5CCOCC5)c([N+](=O)[O-])c4)c(Oc4cnc5[nH]ccc5c4)c3)CC2)=C(c2ccc(Cl)cc2)C1 [Venetoclax] (first compound max 10 µM, 7x7, partner max 1 µM) | -0.0134 | -0.0355 | 0.0685 | -0.0346 | -0.0328 | -0.0251 | -0.0278 | -0.0388 | -0.039 | -0.003 | 0.0365 | -0.0395 | -0.0541 | 0.257 | -0.0377 | -0.0386 | -0.0071 | -0.0398 | 0.0141 | -0.0606 | 0.198 | 0.171 | 0.946 | 0.259 | 0.162 | 0.209 | 0.177 | 0.446 | 0.0967 | 0.211 | 1 | 0.126 | 0.271 | 0.976 | 0.204 | 0.107 | 0.142 | 0.282 | 1 | 0.141
2 | Cc1c2c(nn1C)CSCc1cc(n(C)n1)CSc1cc(c3ccccc3c1)OCCCc1c(C(=O)O)n(C)c3c-2c(Cl)ccc13 [AZD5991] + CS(=O)(=O)CCNCc1ccc(-c2ccc3ncnc(Nc4ccc(OCc5cccc(F)c5)c(Cl)c4)c3c2)o1 [Lapatinib] (first compound max 1 µM, 7x7, partner max 10 µM) | -0.0011 | 0.0766 | 0.0228 | -0.114 | -0.0068 | -0.0454 | -0.0301 | 0.0243 | -0.0329 | 0.0258 | 0.0351 | -0.015 | -0.0722 | -0.0148 | -0.0817 | -0.0159 | 0.0203 | 0.0088 | -0.0011 | -0.116 | 0.277 | 0.835 | 0.24 | 0.421 | 0.6 | 0.537 | 0.352 | 0.589 | 0.177 | 0.165 | 0.688 | 0.755 | 0.261 | 0.995 | 0.247 | 0.368 | 0.963 | 0.532 | 0.115 | 0.177
